From patent US7709700B2, “Method for improving plant transformation efficiency by adding copper ion” (Japan Tobacco Inc., priority 2003, dated 2010)
Read-outs that look alike come from different tables or passages of the source.

Legend:
[1] = tested on: shoots having emerged from ripe seeds of barley; settings: cited from earlier work
[2] = tested on: immature embryos of maize (cultivar: A188); settings: 3 days
[3] = tested on: immature embryos of maize (cultivar: H99)
[4] = tested on: immature embryos of maize (cultivar: A188); settings: co-culture 1 week on media containing copper sulfate, then 1 week on PPT selective medium; FIG. 3
Method: (§1) These calli were cultured on the same medium containing 10 mg/l PPT for 6 weeks under the same conditions. Grown PPT-resistant calli were seeded on LSZ regeneration medium (LSD 1.5 medium deprived of 2,4-D and supplemented with 5 mg/l zeatin) and incubated at 25° C. under illumination for 2-3 weeks. Leaf segments of regenerated plants were excised and assessed for the expression of the GUS gene by X-gluc.
After co-culture for 1 week, the calli grown from immature embryos (cultivar: A188) cultured on a selective medium containing PPT for 1 week were evaluated on a scale of four ratings from 0 (no callus formed) to 3 (the entire scutellum formed callus). […] Further selection on a medium containing PPT and incubation of the resulting calli in a regeneration medium containing PPT gave PPT-resistant plants. Leaf segments of these plants were excised and assessed for the expression of the GUS gene.

[5] = tested on: immature embryos of maize (cultivar: A188)
From the text: Transformation efficiency can be calculated by e.g., counting the number of regenerated plants expressing the GUS gene as transformants among those obtained from inoculated immature embryos and dividing the total number by the number of inoculated immature embryos. Alternatively, it can also be calculated by counting the number of regenerated plants showing resistance against a selective pressure as transformants and dividing the total number by the number of inoculated immature embryos.
as §1
After co-culture for 1 week, the calli grown from immature embryos (cultivar: A188) cultured on a selective medium containing PPT for 1 week were evaluated on a scale of four ratings from 0 (no callus formed) to 3 (the entire scutellum formed callus).

[6] = tested on: immature embryos of rice (cultivar: IR64); settings: 5 μM copper sulfate in co-culture medium, 1 week; FIG. 4
Method: Into an Eppendorf tube containing aseptically collected immature embryos (cultivar: IR64) was added 1 ml of the Agrobacterium suspension and the tube was agitated for 30 seconds in a vortex mixer and then allowed to stand at room temperature for 5 minutes.

[7] = tested on: immature embryos of rice (cultivar: Yukihikari); settings: 0-50 μM in inoculum liquid media; co-culture one week; three experiments; FIG. 7
Method: An Agrobacterium tumefaciens super-binary vector designated LBA4404 (pSB134) cultured on AB medium containing 50 mg/l hygromycin and 50 mg/l spectinomycin for 3 to 4 days was scraped with a platinum loop and suspended at a concentration of about 10^9 cfu/ml in 1 ml of AA1 liquid medium containing 100 μM acetosyringone and 0-50 μM CuSO4.5H2O or copper gluconate. Into an Eppendorf tube containing aseptically collected immature embryos (cultivar: Yukihikari) was added 1 ml of the Agrobacterium suspension and the tube was agitated for 30 seconds in a vortex mixer and then allowed to stand at room temperature for 5 minutes. The immature embryos were seeded on nN6-As medium and incubated in darkness at 25° C. for one week.
The weight of co-cultured immature embryos was measured.

[8] = tested on: regenerated plants of maize (cultivar: A188); settings: 10 μM in LSZ regeneration medium, 3 weeks; FIG. 8
Method: The transformed callus was cut into a size of about 2 mm and plated on LSZ regeneration medium containing 10 μM CuSO4.5H2O or copper gluconate, and PPT. After incubation at 25° C. under illumination for 3 weeks, the leaf length of regenerated plants was measured.

[9] = tested on: regenerated plants of rice (cultivar: Yukihikari); settings: 10 μM in N6R regeneration medium, 3 weeks; FIG. 9
Method: Immature embryos of rice (cultivar: Yukihikari) were inoculated with Agrobacterium tumefaciens LBA4404 (pSB134) and cultured on nN6CC medium (N6 salts, N6 vitamins, 0.5 g/l casamino acids, 0.5 g/l L-proline, 1 mg/l 2,4-D, 0.5 mg/l NAA, 0.1 mg/l 6BA, 20 g/l sucrose, 55 g/l sorbitol, 250 mg/l cefotaxime, 250 mg/l carbenicillin, 5 g/l Gelrite, pH 5.8) containing hygromycin to give a transformed callus. The transformed callus was cut into a size of about 2 mm and seeded on N6R regeneration medium (N6 salts with major salts reduced to ½, N6 vitamins, AA amino acids, 1 g/l casamino acids, 0.5 mg/l kinetin, 20 g/l sucrose, 30 g/l sorbitol, 4 g/l Gelrite, pH 5.8) containing 10 μM CuSO4.5H2O or copper gluconate, and hygromycin. After incubation at 25° C. under illumination for 3 weeks, the leaf length of regenerated plants was measured.

[10] = tested on: immature embryos of maize (cultivar: H99); settings: media containing 1-10 μM copper sulfate (1-100 μM tested); but slightly; cited from earlier work
anthers of wheat = settings: medium containing 10 mg/l copper sulfate and 2.5-5 mg/l silver nitrate; cited from earlier work
[11] = tested on: calli obtained by culturing immature embryos of barley; settings: media containing copper sulfate; cited from earlier work
[12] = tested on: calli obtained by culturing immature embryos of rice; settings: media containing copper sulfate; cited from earlier work
[13] = tested on: immature embryos of maize (cultivar: A188); experiment: Callus formation of immature embryos after 7 days on co-culture media; type: cell-based; settings: 1 week, FIG. 6
[14] = 1 μM CuSO4 in co-culture medium, 13 inoculated immature embryos
[15] = 5 μM CuSO4 in co-culture medium, 13 inoculated immature embryos
[16] = 10 μM CuSO4 in co-culture medium, 14 inoculated immature embryos

Compound: OC[C@H]1O[C@H](O[C@H]2[C@H](O)[C@@H](O)C(O)O[C@@H]2CO)[C@H](O)[C@@H](O)[C@@H]1O (mixture of isomers) [maltose, reference compound]
- brown tissue when shoot meristematic cultures are induced [1]: effective for decreasing brown tissue

Compound: O=S(=O)([O-])[O-].[Cu+2] [copper sulfate]
- area of the scutellum showing transient expression of the GUS gene vs control medium ([2]; 1, 5 and 10 μM copper sulfate in co-culture media, with or without heat/centrifugation pretreatment, FIG. 1): wider area
- average callus diameter greater than that on control co-culture medium [3]: ≥ 2 mm
- PPT-resistant callus formation vs control medium [4]: higher callus formation
- Transformation efficiency (B/A, %) ([5]; 1 μM CuSO4 in co-culture medium): 15.4%
- Number of GUS-positive plants (B) [5, 14]: 2
- Number of regenerated plants [5, 14]: 2
- Transformation efficiency (B/A, %) ([5]; 5 μM CuSO4 in co-culture medium): 46.2%
- Number of GUS-positive plants (B) [5, 15]: 6
- Number of regenerated plants [5, 15]: 6
- Transformation efficiency (B/A, %) ([5]; 10 μM CuSO4 in co-culture medium): 35.7%
- Number of GUS-positive plants (B) [5, 16]: 5
- Number of regenerated plants [5, 16]: 6
- area of the scutellum showing transient expression of the GUS gene vs control medium [6]: wider area
- growth (weight) of co-cultured immature embryos vs control medium [7]: more active growth
- leaf length of regenerated plants vs control regeneration medium [8]: significantly longer
- leaf length of regenerated plants vs control regeneration medium [9]: significantly longer
- shoot growth when shoot meristematic cultures are induced [1]: effective for promoting shoot growth
- induction ratio of shoot meristematic cultures (SMCs) ([1]; medium containing 5 μM copper sulfate and 30 g/l maltose): increases
- callus formation from immature embryos [10]: improved
- embryoid formation (anthers of wheat): increases
- regeneration ratio or number of regenerated plants per callus [11]: increases
- regeneration ratio or number of regenerated plants per callus [12]: increases

Compound: O=[N+]([O-])[O-].[Ag+] [silver nitrate, reference compound]
- callus growth vs control medium ([3]; 5 μM silver nitrate in co-culture medium, 3 days, then about 4 weeks without selection, FIG. 2): nearly comparable

Compound: copper gluconate
- callus formation vs medium lacking copper gluconate ([13]; 1, 5 and 10 μM copper gluconate in co-culture media): higher callus formation
- callus formation vs control ([13]; 5 and 10 μM copper gluconate in co-culture media): significantly higher callus formation
- area of the scutellum showing transient expression of the GUS gene vs control medium ([2]; 1, 5 and 10 μFM copper gluconate in co-culture media, heat/centrifugation pretreatment, FIG. 5): wider area
- growth (weight) of co-cultured immature embryos vs control medium [7]: more active growth
- leaf length of regenerated plants vs control regeneration medium [8]: significantly longer
- leaf length of regenerated plants vs control regeneration medium [9]: significantly longer
